Data from patent publication US8092810B2, “Use of polypeptides having antimicrobial activity” (Novozymes A/S, priority 2006, dated 2012).
In brackets after ≈: the same amount, converted by molar mass. Where two headings read alike, the source gives them in different places.

Assays:
Assay in all cases: MIC broth microdilution
Assay type in all cases: cell-based
[1] = test system: Burkholderia cepacia ATCC 25416
[2] = test system: Acinetobacter sp. ATCC 49137
Experimental: (§1) Briefly, the MIC was determined by microbroth dilution assay in a 96 well plate. 4-5 colonies of each bacterium tested were added to 5 ml of MHB, placed in a 35° C. shaker until the OD 600 nm reached 0.08-0.10. The inoculum was diluted 1:100 and 50 microliters were added to each well which contained 50 microliters of serial two fold dilutions of Lento, vancomycin or ciprofloxacin. Each concentration of antibiotic or Lento was tested in duplicate. The plate was placed at 35° C. overnight. MICs were determined after 24 hours incubation and defined by the well containing the lowest amount of antibiotic with no visible growth.

[3] = test system: Corynebacterium jeikeium ATCC 43734; settings: Corynebacterium jeikeium, ATCC43734, 24 h
Experimental: as §1

[4] = test system: Enterococcus faecalis (VRE) ATCC 51299
Experimental: as §1

[5] = test system: Enterococcus faecium ATCC 51559; settings: ATCC51559; Enterococcus faecium ATCC 51559, Gram +; MHB, 35° C., 24 hours; read-out: MIC
Experimental: as §1

[6] = test system: Eschericia coli ATCC 10536
Experimental: as §1

[7] = test system: Eschericia coli ATCC 25922
Experimental: as §1

[8] = test system: Eschericia coli ATCC 35218; settings: 24 h
Experimental: as §1

[9] = test system: Micrococcus luteus ATCC 9341
Experimental: as §1

[10] = test system: Salmonella typhimurium ATCC 13311; settings: Salmonella enterica
Experimental: as §1

[11] = test system: Shigella dysenteriae ATCC 11835; settings: Shigella dysenteriae, ATCC11835, 24 h
Experimental: as §1

[12] = test system: Staphylococcus aureus (GISA) ATCC 700699
Experimental: as §1

[13] = test system: Staphylococcus aureus ATCC 27734
Experimental: as §1

[14] = test system: Staphylococcus aureus ATCC 29737; settings: Staphylococcus aureus, ATCC29737, 24 h
Experimental: as §1

[15] = test system: Staphylococcus aureus subsp. aureus (MRSA & GISA) ATCC 700789
Experimental: as §1

[16] = test system: Staphylococcus aureus subsp. aureus (MRSA) ATCC 700788
Experimental: as §1

[17] = test system: Staphylococcus epidermidis ATCC 12228; settings: Staphylococcus epidermidis, ATCC12228, 24 h
Experimental: as §1

[18] = test system: Staphylococus aureus (GISA) ATCC 700787
Experimental: as §1

[19] = test system: Streptococcus pneumoniae (PSRSP) ATCC 700671
Experimental: as §1

[20] = test system: Streptococcus pneumoniae (TCRSP) ATCC 700902
Experimental: as §1

[21] = test system: Streptococcus pneumoniae ATCC 49619
Experimental: as §1

[22] = test system: Streptococcus pneumoniae ATCC 700676
Experimental: as §1

[23] = test system: Bacillus cereus ATCC 4342; settings: Bacillus cereus, ATCC4342, 24 h
Experimental: as §1

[24] = test system: Corynebacterium jeikeium ATCC 43216; settings: Corynebacterium jeikeium, ATCC43216, 24 h
Experimental: as §1

[25] = test system: Klebsiella pneumoniae ATCC 10031; settings: ATCC10031, 24 h
Experimental: as §1

[26] = test system: Pseudomonas aeruginosa ATCC 27853; settings: ATCC27853, 24 h
Experimental: as §1

[27] = test system: Staphylococcus aureus (MRSA) ATCC 33591; settings: 24 h
Experimental: as §1

[28] = test system: Staphylococcus aureus ATCC 29213; settings: Staphylococcus aureus, ATCC29213, 24 h
Experimental: as §1

[29] = test system: Stenotrophomas maltophilia ATCC 13637; settings: 24 h
Experimental: as §1

## O=C(O)c1cn(C2CC2)c2cc(N3CCNCC3)c(F)cc2c1=O [Ciprofloxacin]
[1]; ATCC25416, Burkholderia cepacia ATCC 25416, Gram −, MHB, 35° C., 24 hours, read-out: MIC
  MIC: 0.25 µg/mL (≈ 0.754 µM)
[2]; ATCC49137, Acinetobacter sp. ATCC 49137, Gram −, MHB, 35° C., 24 hours, read-out: MIC
  MIC: 0.0625 µg/mL (≈ 0.189 µM)
[3]
  MIC: 0.0625 µg/mL (≈ 0.189 µM)
[4]; Enterococcus faecalis (VRE) ATCC 51299, Gram +, MHB, 35° C., 24 hours, read-out: MIC
  MIC: 0.5 µg/mL (≈ 1.51 µM)
[5]
  MIC: > 64 µg/mL
[6]; Eschericia coli ATCC 10536, Gram −, MHB, 35° C., 24 hours, read-out: MIC
  MIC: 0.0625 µg/mL (≈ 0.189 µM)
[7]; Eschericia coli ATCC 25922, Gram −, MHB, 35° C., 24 hours, read-out: MIC
  MIC: 0.0625 µg/mL (≈ 0.189 µM)
[8]
  MIC: 0.0625 µg/mL (≈ 0.189 µM)
[9]; ATCC9341, Micrococcus luteus ATCC 9341, Gram +, MHB, 35° C., 24 hours, read-out: MIC
  MIC: 1 µg/mL (≈ 3.02 µM)
[10]; Salmonella typhimurium ATCC 13311, Gram −, MHB, 35° C., 24 hours, read-out: MIC
  MIC: 0.0625 µg/mL (≈ 0.189 µM)
[11]
  MIC: 0.0625 µg/mL (≈ 0.189 µM)
[12]; ATCC700699, Staphylococcus aureus (GISA) ATCC 700699, Gram +, MHB, 35° C., 24 hours, read-out: MIC
  MIC: 16 µg/mL (≈ 48.3 µM)
[13]; ATCC27734, Staphylococcus aureus ATCC 27734, Gram +, MHB, 35° C., 24 hours, read-out: MIC
  MIC: 8 µg/mL (≈ 24.1 µM)
[14]
  MIC: 0.0625 to 0.25 µg/mL (≈ 0.189 to 0.754 µM)
[15]; Staphylococcus aureus subsp. aureus (MRSA & GISA) ATCC 700789, Gram +, MHB, 35° C., 24 hours, read-out: MIC
  MIC: 16 µg/mL (≈ 48.3 µM)
[16]; Staphylococcus aureus subsp. aureus (MRSA) ATCC 700788, Gram +, MHB, 35° C., 24 hours, read-out: MIC
  MIC: 8 µg/mL (≈ 24.1 µM)
[17]
  MIC: 0.0625 µg/mL (≈ 0.189 µM)
[18]; Staphylococus aureus (GISA) ATCC 700787, Gram +, MHB, 35° C., 24 hours, read-out: MIC
  MIC: 16 µg/mL (≈ 48.3 µM)
[19]; ATCC700671, Streptococcus pneumoniae (PSRSP) ATCC 700671, Gram +, MHB, 35° C., 24 hours, read-out: MIC
  MIC: 1 to 2 µg/mL (≈ 3.02 to 6.04 µM)
[20]; ATCC700902, Streptococcus pneumoniae (TCRSP) ATCC 700902, Gram +, MHB, 35° C., 24 hours, read-out: MIC
  MIC: 0.5 to 1 µg/mL (≈ 1.51 to 3.02 µM)
[21]; ATCC49619, Streptococcus pneumoniae ATCC 49619, Gram +, MHB, 35° C., 24 hours, read-out: MIC
  MIC: 0.5 µg/mL (≈ 1.51 µM)
[22]; ATCC700676, Streptococcus pneumoniae ATCC 700676, Gram +, MHB, 35° C., 24 hours, read-out: MIC
  MIC: 1 µg/mL (≈ 3.02 µM)

## CN[C@H](CC(C)C)C(=O)N[C@H]1C(=O)N[C@@H](CC(N)=O)C(=O)N[C@H]2C(=O)N[C@H]3C(=O)N[C@H](C(=O)N[C@H](C(=O)O)c4cc(O)cc(O)c4-c4cc3ccc4O)[C@H](O)c3ccc(c(Cl)c3)Oc3cc2cc(c3O[C@@H]2O[C@H](CO)[C@@H](O)[C@H](O)[C@H]2O[C@H]2C[C@](C)(N)[C@H](O)[C@H](C)O2)Oc2ccc(cc2Cl)[C@H]1O [Vancomycin, vancomycin]
[1]; Burkholderia cepacia, ATCC25416, 24 h
  MIC: > 64 µg/mL
[2]; Acinetobacter, ATCC49137, 24 h
  MIC: > 64 µg/mL
[23]
  MIC: 1 µg/mL (≈ 0.69 µM)
[24]
  MIC: 0.25 µg/mL (≈ 0.173 µM)
[3]
  MIC: 0.25 µg/mL (≈ 0.173 µM)
[4]; Enterococcus faecalis, 24 h
  MIC: 2 µg/mL (≈ 1.38 µM)
[6]; 24 h
  MIC: > 64 µg/mL
[7]; 24 h
  MIC: > 64 µg/mL
[8]
  MIC: > 64 µg/mL
[25]
  MIC: > 64 µg/mL
[9]; Micrococcus luteus, ATCC9341, 24 h
  MIC: 0.5 µg/mL (≈ 0.345 µM)
[26]
  MIC: > 64 µg/mL
[10]; 24 h
  MIC: > 64 µg/mL
[11]
  MIC: > 64 µg/mL
[12]; Staphylococcus aureus, ATCC700699, 24 h
  MIC: 8 µg/mL (≈ 5.52 µM)
[27]
  MIC: 1 µg/mL (≈ 0.69 µM)
[13]; Staphylococcus aureus, ATCC27734, 24 h
  MIC: 1 µg/mL (≈ 0.69 µM)
[28]
  MIC: 0.5 µg/mL (≈ 0.345 µM)
[14]
  MIC: 0.5 µg/mL (≈ 0.345 µM)
[15]; Staphylococcus aureus, 24 h
  MIC: 2 µg/mL (≈ 1.38 µM)
[16]; Staphylococcus aureus, 24 h
  MIC: 2 µg/mL (≈ 1.38 µM)
[17]
  MIC: 1 µg/mL (≈ 0.69 µM)
[18]; 24 h
  MIC: 8 µg/mL (≈ 5.52 µM)
[29]
  MIC: 32 µg/mL (≈ 22.1 µM)
[19]; Streptococcus pneumoniae, ATCC700671, 24 h
  MIC: 0.5 µg/mL (≈ 0.345 µM)
[20]; Streptococcus pneumoniae, ATCC700902, 24 h
  MIC: 0.25 µg/mL (≈ 0.173 µM)
[21]; Streptococcus pneumoniae, ATCC49619, 24 h
  MIC: 0.5 to 1 µg/mL (≈ 0.345 to 0.69 µM)
[22]; Streptococcus pneumoniae, ATCC700676, 24 h
  MIC: 0.25 µg/mL (≈ 0.173 µM)
